Consider two molecules from ChEMBL document CHEMBL1641570, “New hydroxystilbenoid derivatives endowed with neuroprotective activity and devoid of interference with estrogen and aryl hydrocarbon receptor-mediated transcription” (Bioorg Med Chem, 2011).

Data set [1] can be described thus: Antagonist activity at estrogen receptor in human Ishikawa cells assessed as inhibition of estradiol-induced alkaline phosphatase expression at 1 uM after 72 hrs relative to ICI182780. In kind it is cell-based.
For data set [2], the target named is T1, Estrogen receptor beta (Homo sapiens, UniProt Q92731). Kind of data set: Antagonist activity at human ERbeta receptor expressed in human HEK293 cells co-expressing ERE assessed as inhibition of estradiol-induced of luciferase gene expression at 1 uM after 18 hrs relative to ICI182780. Particulars: hek293, 18 h; call rule not given here. Format: cell-based.
T1 sequence (Q92731 whole entry): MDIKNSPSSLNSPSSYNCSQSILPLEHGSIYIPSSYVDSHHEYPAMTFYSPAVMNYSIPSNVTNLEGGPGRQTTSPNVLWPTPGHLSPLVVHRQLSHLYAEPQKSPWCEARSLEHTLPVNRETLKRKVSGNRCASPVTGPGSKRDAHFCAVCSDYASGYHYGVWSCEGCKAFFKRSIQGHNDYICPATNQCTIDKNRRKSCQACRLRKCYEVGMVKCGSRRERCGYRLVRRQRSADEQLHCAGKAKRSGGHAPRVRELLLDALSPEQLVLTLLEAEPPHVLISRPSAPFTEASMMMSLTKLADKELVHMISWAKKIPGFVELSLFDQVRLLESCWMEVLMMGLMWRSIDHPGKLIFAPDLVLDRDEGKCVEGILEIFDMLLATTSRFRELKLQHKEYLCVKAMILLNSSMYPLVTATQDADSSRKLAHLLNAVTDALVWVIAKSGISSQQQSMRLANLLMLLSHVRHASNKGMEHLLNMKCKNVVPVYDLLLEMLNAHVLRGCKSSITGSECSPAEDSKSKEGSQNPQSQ
In data set [3] the test system is HT-22. Kind of data set: Neuroprotective activity in mouse HT22 cells assessed as protection against glutamate-induced oxytosis after 24 hrs by MTT assay. In kind it is functional, cell-based. Particulars: HT-22, 24 h.
In data set [4] the test system is Ishikawa. Kind of data set: Cytotoxicity against human Ishikawa cells by LDH release assay. Format: cell-based. (LDH in the medium is a marker of cell lysis.)
Data set [5] deals with Aryl hydrocarbon receptor (Mus musculus) (UniProt P30561). Kind of data set: Activity at AhR expressed in mouse H1L1.1c2 cells co-expressing XRE assessed as increase of benzo[b]fluoranthene-induced luciferase gene expression at 1 uM after 72 hrs.
Aryl hydrocarbon receptor (Mus musculus), sequence (P30561 whole entry, looked up): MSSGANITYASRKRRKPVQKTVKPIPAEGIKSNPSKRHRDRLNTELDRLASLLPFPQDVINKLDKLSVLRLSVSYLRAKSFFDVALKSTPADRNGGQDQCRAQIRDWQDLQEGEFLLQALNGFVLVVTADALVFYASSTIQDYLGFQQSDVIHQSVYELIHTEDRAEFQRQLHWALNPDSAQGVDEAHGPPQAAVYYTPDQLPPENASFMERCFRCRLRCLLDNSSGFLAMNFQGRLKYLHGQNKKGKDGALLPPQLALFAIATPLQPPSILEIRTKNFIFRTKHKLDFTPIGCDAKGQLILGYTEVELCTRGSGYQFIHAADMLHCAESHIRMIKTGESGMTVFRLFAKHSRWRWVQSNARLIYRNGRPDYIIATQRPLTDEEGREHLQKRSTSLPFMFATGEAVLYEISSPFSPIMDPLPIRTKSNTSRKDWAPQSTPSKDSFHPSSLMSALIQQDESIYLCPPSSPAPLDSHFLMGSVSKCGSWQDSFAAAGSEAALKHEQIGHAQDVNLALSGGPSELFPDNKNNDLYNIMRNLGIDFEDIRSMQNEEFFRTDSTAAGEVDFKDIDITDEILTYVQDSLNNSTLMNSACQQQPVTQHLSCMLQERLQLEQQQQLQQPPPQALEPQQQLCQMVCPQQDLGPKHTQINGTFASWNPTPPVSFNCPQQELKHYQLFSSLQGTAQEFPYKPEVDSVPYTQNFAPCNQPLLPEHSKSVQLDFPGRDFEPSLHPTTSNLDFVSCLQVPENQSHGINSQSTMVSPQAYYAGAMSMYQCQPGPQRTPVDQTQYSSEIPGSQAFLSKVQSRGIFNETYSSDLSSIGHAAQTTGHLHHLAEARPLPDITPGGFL
In data set [6] the test system is MCF7. Kind of data set: Antiproliferative activity against human stradiol-stimulated MCF7 cells at 1 uM after 96 hrs by MTT assay. Format: cell-based. Particulars: mcf7, 96 h. (Tetrazolium dyes change colour on reduction, which living cells bring about.)
In data set [7] the test system is HT-22. Kind of data set: Neuroprotective activity in mouse HT22 cells assessed as protection against glutamate-induced oxytosis after 24 hrs by MTT assay relative to resveratrol. In kind it is functional.
Data set [8] in a line: Cytotoxicity against mouse HT22 cells assessed as cell viability at 1 uM after 3 days by LDH release assay relative to control. Format: cell-based, HT-22. As to conditions: read-out: Activity.
The target of data set [9] is T1, Estrogen receptor beta. Kind of data set: Agonist activity at human ERbeta receptor expressed in human HEK293 cells co-expressing ERE assessed as increase of estradiol-induced luciferase gene expression at 1 uM after 18 hrs relative to estradiol. In kind it is cell-based.
For data set [10], the target named is T2, Estrogen receptor (Homo sapiens, UniProt P03372).
T2 sequence (P03372 whole entry): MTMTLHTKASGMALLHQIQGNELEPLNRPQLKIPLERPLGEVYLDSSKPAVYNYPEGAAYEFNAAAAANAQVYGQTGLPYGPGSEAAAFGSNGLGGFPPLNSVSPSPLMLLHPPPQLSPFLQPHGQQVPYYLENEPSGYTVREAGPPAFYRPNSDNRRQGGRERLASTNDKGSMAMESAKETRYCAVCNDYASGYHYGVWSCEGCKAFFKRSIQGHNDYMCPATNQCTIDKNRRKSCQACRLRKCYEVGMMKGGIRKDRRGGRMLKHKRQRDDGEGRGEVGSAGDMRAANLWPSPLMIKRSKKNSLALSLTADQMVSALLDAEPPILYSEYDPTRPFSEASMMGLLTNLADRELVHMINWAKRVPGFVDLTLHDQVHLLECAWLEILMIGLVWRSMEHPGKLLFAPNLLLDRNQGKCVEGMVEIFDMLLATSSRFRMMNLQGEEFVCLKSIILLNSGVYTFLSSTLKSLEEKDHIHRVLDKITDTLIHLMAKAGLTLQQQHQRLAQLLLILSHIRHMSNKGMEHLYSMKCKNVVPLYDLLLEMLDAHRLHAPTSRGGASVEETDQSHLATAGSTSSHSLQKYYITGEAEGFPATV
The experiment in a line: Partial agonist activity at human ERalpha receptor expressed in human MCF7:D5L cells co-expressing ERE assessed as increase of estradiol-induced luciferase gene expression at 1 uM after 18 hrs relative to estradiol. In kind it is cell-based. Particulars: 18 h, 1 µM.

Data set [11] can be described thus: Agonist activity at estrogen receptor in human Ishikawa cells assessed as increase of estradiol-induced alkaline phosphatase expression at 1 uM after 72 hrs relative to estradiol. Format: cell-based. Particulars: ishikawa, 72 h, 1 µM.
Data set [12] has as its target T2, Estrogen receptor. The experiment in a line: Antagonist activity at human ERalpha receptor expressed in human MCF7:D5L cells co-expressing ERE assessed as inhibition of estradiol-induced of luciferase gene expression at 1 uM after 18 hrs relative to ICI182780. Format: cell-based.
Data set [13] deals with Aryl hydrocarbon receptor (Mus musculus) (UniProt P30561). Kind of data set: Activity at AhR expressed in mouse H1L1.1c2 cells co-expressing XRE assessed as induction luciferase gene expression at 1 uM after 72 hrs relative to benzo[b]fluoranthene.
Data set [14] concerns Ishikawa. The experiment in a line: Cytotoxicity against human Ishikawa cells at 1 uM by LDH release assay. In kind it is cell-based.

SMILES strings stand for the structures.

The term EC50 denotes the concentration giving half of the maximal effect. Take `CCC(CC)c1cc(/C=C/c2cc(O)cc(O)c2)cc(C(CC)CC)c1O`: the Activity result in data set [1] is listed as “Not Active”; in [2] it was “Not Active”; in data set [4], “Non-toxic”; in data set [5] it was 3%; in [6], “Non-toxic”; in data set [9] (hek293, 18 h, 1 µM), “Not Active”. The Activity result in data set [10], in data set [11] and in data set [12] was “Not Active” in each case. Besides, the half-maximal effective concentration (EC50) in data set [3] was 0.03 µM. Also, the “Ratio EC50” value in data set [7] is on record as 156. In addition, the percent cytotoxicity (LDH release relative to control) at 72 h, 1 µM in data set [8] was -6.7%. Also, the Ratio in data set [13] was 1.9.

Take `Oc1ccc(/C=C/C=C/c2cc(O)cc(O)c2)cc1`: the EC50 in [3] stood at 3.31 µM. In addition, the Activity result in data set [14] is listed as “Toxic”; in data set [5], 1.7%; in data set [10], “Not Active”; in [12], “Not Active”. Besides, the “Ratio EC50” value in [7] was 1.4. Further, the percent cytotoxicity (LDH release relative to control) at 72 h, 1 µM in [8] was 8%. For the same molecule, the activity at 18 h, 1 µM in data set [9] (read-out: Activity) amounted to 66%.
